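These data come from cells grown in 96-well plates and exposed to compound for 48 hours at five concentrations. TGI: concentration producing complete growth inhibition.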
Columns and labels:
Experiment in all cases: inhibition of tumour cell growth, NCI panel, 48 h
NCI-H226 lung = test system: NCI-H226 lung
PC-3 prostate = test system: PC-3 prostate
T-47D breast = test system: T-47D breast
SNB-75 CNS = test system: SNB-75 CNS
SF-268 CNS = test system: SF-268 CNS
SR leukemia = test system: SR leukemia
MDA-MB-435 = test system: MDA-MB-435
MDA-N = test system: MDA-N
MDA-MB-231 breast = test system: MDA-MB-231 breast
SNB-19 CNS = test system: SNB-19 CNS
M14 melanoma = test system: M14 melanoma
A498 renal = test system: A498 renal
SK-OV-3 ovarian = test system: SK-OV-3 ovarian
K-562 leukemia = test system: K-562 leukemia
OVCAR-3 ovarian = test system: OVCAR-3 ovarian
A549 NSCLC = test system: A549 NSCLC
RPMI-8226 leukemia = test system: RPMI-8226 leukemia
CCRF-CEM leukemia = test system: CCRF-CEM leukemia
SK-MEL-28 melanoma = test system: SK-MEL-28 melanoma
OVCAR-5 ovarian = test system: OVCAR-5 ovarian
OVCAR-4 ovarian = test system: OVCAR-4 ovarian
MCF7 breast = test system: MCF7 breast
HS 578T breast = test system: HS 578T breast
IGROV1 ovarian = test system: IGROV1 ovarian
HCT-116 colon = test system: HCT-116 colon
SF-539 CNS = test system: SF-539 CNS
HOP-92 NSCLC = test system: HOP-92 NSCLC
HOP-62 NSCLC = test system: HOP-62 NSCLC
HCC-2998 colon = test system: HCC-2998 colon
CAKI-1 renal = test system: CAKI-1 renal
SK-MEL-5 melanoma = test system: SK-MEL-5 melanoma
NCI-H23 lung = test system: NCI-H23 lung
SN12C renal = test system: SN12C renal
UACC-257 melanoma = test system: UACC-257 melanoma
KM12 colon = test system: KM12 colon
HL-60(TB) leukemia = test system: HL-60(TB) leukemia
DU-145 prostate = test system: DU-145 prostate
BT-549 breast = test system: BT-549 breast
NCI-H522 lung = test system: NCI-H522 lung
LOX IMVI melanoma = test system: LOX IMVI melanoma
UO-31 renal = test system: UO-31 renal
OVCAR-8 ovarian = test system: OVCAR-8 ovarian
MOLT-4 leukemia = test system: MOLT-4 leukemia
COLO 205 colon = test system: COLO 205 colon
MALME-3M melanoma = test system: MALME-3M melanoma
786-0 renal = test system: 786-0 renal
TK-10 renal = test system: TK-10 renal
HT29 colon = test system: HT29 colon
RXF 393 renal = test system: RXF 393 renal
SW-620 colon = test system: SW-620 colon
EKVX NSCLC = test system: EKVX NSCLC
NCI/ADR-RES ovarian = test system: NCI/ADR-RES ovarian
SF-295 CNS = test system: SF-295 CNS
SK-MEL-2 melanoma = test system: SK-MEL-2 melanoma
UACC-62 melanoma = test system: UACC-62 melanoma
NCI-H460 lung = test system: NCI-H460 lung
ACHN renal = test system: ACHN renal
U251 CNS = test system: U251 CNS
HCT-15 colon = test system: HCT-15 colon
DMS 114 small cell lung = test system: DMS 114 small cell lung
SNB-78 CNS = test system: SNB-78 CNS
KM20L2 colon = test system: KM20L2 colon
M19-MEL melanoma = test system: M19-MEL melanoma
DMS 273 small cell lung = test system: DMS 273 small cell lung
LXFL 529 NSCLC = test system: LXFL 529 NSCLC

Which results are given for `CC(=O)O[C@@H]1C(C2CCCCC2)C=[N+]([O-])O[C@@H]1OC1CCCC1(c1ccccc1)c1ccccc1` (stereo partly drawn)?
TGI (NCI-H226 lung): 32.1 µM; TGI (PC-3 prostate): 23 µM; TGI (T-47D breast): 10.1 µM; TGI (SNB-75 CNS): 17.6 µM; TGI (SF-268 CNS): 17.6 µM; TGI (SR leukemia): > 22.8 µM; TGI (MDA-MB-435): 9.04 µM; TGI (MDA-N): 12.2 µM; TGI (MDA-MB-231 breast): 27.1 µM; TGI (SNB-19 CNS): 30.5 µM; TGI (M14 melanoma): 12.1 µM; TGI (A498 renal): 17.1 µM; TGI (SK-OV-3 ovarian): 29.1 µM; TGI (K-562 leukemia): > 40.2 µM; TGI (OVCAR-3 ovarian): 10.3 µM; TGI (A549 NSCLC): 28.5 µM; TGI (RPMI-8226 leukemia): 7.91 µM; TGI (CCRF-CEM leukemia): 7.49 µM; TGI (SK-MEL-28 melanoma): 5.84 µM; TGI (OVCAR-5 ovarian): 30.7 µM; TGI (OVCAR-4 ovarian): 21.1 µM; TGI (MCF7 breast): 12 µM; TGI (HS 578T breast): 27.8 µM; TGI (IGROV1 ovarian): 8.83 µM; TGI (HCT-116 colon): 15.5 µM; TGI (SF-539 CNS): 14.2 µM; TGI (HOP-92 NSCLC): 23.1 µM; TGI (HOP-62 NSCLC): 29.3 µM; TGI (HCC-2998 colon): 26 µM; TGI (CAKI-1 renal): 10.4 µM; TGI (SK-MEL-5 melanoma): 28 µM; TGI (NCI-H23 lung): 26.2 µM; TGI (SN12C renal): 21.2 µM; TGI (UACC-257 melanoma): 36.5 µM; TGI (KM12 colon): 22.9 µM; TGI (HL-60(TB) leukemia): 3.4 µM; TGI (DU-145 prostate): 25.3 µM; TGI (BT-549 breast): 24.8 µM; TGI (NCI-H522 lung): 4.1 µM; TGI (LOX IMVI melanoma): 3.48 µM; TGI (UO-31 renal): 20.4 µM; TGI (OVCAR-8 ovarian): 4.22 µM; TGI (MOLT-4 leukemia): > 27.6 µM; TGI (COLO 205 colon): 17.7 µM; TGI (MALME-3M melanoma): 9.05 µM; TGI (786-0 renal): 16.8 µM; TGI (TK-10 renal): 28.3 µM; TGI (HT29 colon): 5.65 µM; TGI (RXF 393 renal): 6.82 µM; TGI (SW-620 colon): 4.63 µM; TGI (EKVX NSCLC): 30.2 µM; TGI (NCI/ADR-RES ovarian): 29.3 µM; TGI (SF-295 CNS): 27.4 µM; TGI (SK-MEL-2 melanoma): 27.8 µM; TGI (UACC-62 melanoma): 19.4 µM; TGI (NCI-H460 lung): 30 µM; TGI (ACHN renal): 4.84 µM; TGI (U251 CNS): 26.1 µM; TGI (HCT-15 colon): 4.21 µM

How did the TGI (NCI-H226 lung) turn out when `CC(C)Cn1cnc2c(Sc3c([N+](=O)[O-])ncn3C)nc(N)nc21` was run?
Its TGI is > 100 µM.

What about the TGI (DMS 114 small cell lung) of the same compound?
The TGI was > 100 µM.

And the TGI (PC-3 prostate)?
Its TGI is > 100 µM.

What about the TGI (T-47D breast) of the same compound?
The TGI was > 100 µM.

And the TGI (SNB-75 CNS)?
Its TGI is > 100 µM.

And the TGI (SF-268 CNS)?
The TGI was > 100 µM.

And the TGI (SR leukemia)?
The TGI was > 100 µM.

And the TGI (MDA-MB-435)?
Its TGI is > 100 µM.

And the TGI (MDA-N)?
Its TGI is > 100 µM.

What about the TGI (MDA-MB-231 breast) of the same compound?
The TGI was > 100 µM.

And the TGI (SNB-19 CNS)?
Its TGI is > 100 µM.

And the TGI (M14 melanoma)?
Its TGI is > 100 µM.

And the TGI (A498 renal)?
Its TGI is > 100 µM.

And the TGI (SK-OV-3 ovarian)?
Its TGI is > 100 µM.

What about the TGI (K-562 leukemia) of the same compound?
Its TGI is > 100 µM.

What about the TGI (OVCAR-3 ovarian) of the same compound?
The TGI was > 57.4 µM.

And the TGI (A549 NSCLC)?
The TGI was > 100 µM.

And the TGI (RPMI-8226 leukemia)?
The TGI was > 100 µM.

And the TGI (CCRF-CEM leukemia)?
The TGI was > 100 µM.

And the TGI (SK-MEL-28 melanoma)?
The TGI was > 100 µM.

And the TGI (OVCAR-5 ovarian)?
Its TGI is > 100 µM.

What about the TGI (SNB-78 CNS) of the same compound?
The TGI was > 100 µM.

And the TGI (KM20L2 colon)?
The TGI was > 100 µM.

What about the TGI (OVCAR-4 ovarian) of the same compound?
The TGI was > 100 µM.

What about the TGI (M19-MEL melanoma) of the same compound?
The TGI was > 100 µM.

And the TGI (MCF7 breast)?
Its TGI is > 100 µM.

And the TGI (IGROV1 ovarian)?
Its TGI is > 100 µM.

What about the TGI (HCT-116 colon) of the same compound?
Its TGI is > 100 µM.

What about the TGI (SF-539 CNS) of the same compound?
Its TGI is > 100 µM.

What about the TGI (HOP-92 NSCLC) of the same compound?
Its TGI is 36.9 µM.

What about the TGI (HOP-62 NSCLC) of the same compound?
The TGI was > 100 µM.

And the TGI (HCC-2998 colon)?
The TGI was > 100 µM.

What about the TGI (CAKI-1 renal) of the same compound?
The TGI was > 100 µM.

And the TGI (SK-MEL-5 melanoma)?
Its TGI is > 100 µM.

What about the TGI (NCI-H23 lung) of the same compound?
The TGI was > 100 µM.

And the TGI (SN12C renal)?
Its TGI is > 100 µM.

What about the TGI (DMS 273 small cell lung) of the same compound?
Its TGI is > 100 µM.

And the TGI (LXFL 529 NSCLC)?
Its TGI is > 100 µM.

And the TGI (UACC-257 melanoma)?
Its TGI is > 100 µM.

And the TGI (KM12 colon)?
The TGI was > 100 µM.

And the TGI (HL-60(TB) leukemia)?
Its TGI is > 100 µM.

What about the TGI (DU-145 prostate) of the same compound?
The TGI was > 100 µM.

And the TGI (BT-549 breast)?
The TGI was > 100 µM.

And the TGI (NCI-H522 lung)?
The TGI was 89.1 µM.

What about the TGI (LOX IMVI melanoma) of the same compound?
The TGI was > 100 µM.

And the TGI (UO-31 renal)?
The TGI was > 75 µM.

And the TGI (OVCAR-8 ovarian)?
The TGI was > 100 µM.

And the TGI (MOLT-4 leukemia)?
The TGI was > 100 µM.

And the TGI (COLO 205 colon)?
The TGI was > 62.9 µM.

What about the TGI (MALME-3M melanoma) of the same compound?
The TGI was > 59.8 µM.

What about the TGI (786-0 renal) of the same compound?
Its TGI is > 100 µM.

What about the TGI (TK-10 renal) of the same compound?
The TGI was > 100 µM.

And the TGI (HT29 colon)?
Its TGI is > 100 µM.

And the TGI (RXF 393 renal)?
Its TGI is > 100 µM.

And the TGI (SW-620 colon)?
The TGI was > 100 µM.

And the TGI (EKVX NSCLC)?
Its TGI is > 100 µM.

What about the TGI (NCI/ADR-RES ovarian) of the same compound?
Its TGI is > 100 µM.

And the TGI (SF-295 CNS)?
The TGI was > 100 µM.

What about the TGI (SK-MEL-2 melanoma) of the same compound?
The TGI was 81.9 µM.

What about the TGI (UACC-62 melanoma) of the same compound?
The TGI was > 100 µM.

And the TGI (NCI-H460 lung)?
Its TGI is > 100 µM.

And the TGI (ACHN renal)?
The TGI was > 100 µM.

And the TGI (U251 CNS)?
Its TGI is > 100 µM.

What about the TGI (HCT-15 colon) of the same compound?
The TGI was > 100 µM.

From PubChem BioAssay (NCI)
